Where no end group is shown, it is not given here.
How the values were obtained:
human erythrocytes = details: cited from earlier work
From the text: Ocellatin4 ([…]-NH(2)) is a cytolytic peptide obtained from skin secretion of the South American frog Leptodactylus ocellatus. The analogue of this peptide named as, Ocellatin4-analogue ([…]) has positive charge at its N-terminus (lysine residue), similarly to K^0-W^6-Hy-a1.

[1] = tested on: Galleria mellonella larvae; experiment: Toxicity in Galleria mellonella larvae; type: in vivo; details: for Median (%survival): over Experiments 1 and 2; for survival percentages of larvae: at 64 and 128 μM
Experimental: The peptides citrus–amp1 and citrus–amp2 were selected for toxicity assay in G. mellonella. Larvae with 0.15 to 0.20 g were randomly selected for the experiments and were kept without food in Petri plates at 37°C in the dark for 24 h prior to use. Each larva was injected with 10 μL of peptides at 64 and 128 μM into the last proleg using a Hamilton micro-syringe. […] The larvae were incubated at 37°C and survival was evaluated daily for 7 days. Group of 8–9 larvae was used to each concentration of peptides and 10 μL of PBS was injected in the control group. Two independent experiments were performed.

Methylobacterium sp. = type: cell-based; details: ND = higher than the concentrations evaluated
From the text: (§1) Two important citrus pathogenic bacteria were addressed in our study: X.citri (isolate 306), the causal agent of citrus canker, and CaLas, causal agent of HLB. Since the latter cannot be cultivated in vitro, surrogates phylogenetically related to CaLas were used in the assays. The surrogates chosen were S. meliloti SEMIA 165 (= USDA 1002) and A. tumefaciens (GV3101/PMP90), provided by FEPAGRO (Fundação Estadual de Pesquisa Agropecuária) and by Dr. Janete Desidério, UNESP (Universidade Estadual Paulista, Jaboticabal, São Paulo, Brazil). The effect of the AMPs on Methylobacterium sp., an endophytic commonly found at citrus in Brazil and kindly provided by Dr. Wellington Luiz Araújo, Instituto de Ciências Biomédicas, Universidade de São Paulo, Brazil, was also assessed. Methylobacterium sp. and X.citri was cultured in NBY solid medium and then in NBY liquid medium according to Amaral et al. for 48 hours at 28°C and 180 rpm. S. meliloti and A. tumefaciens were grown in YM medium (Yeast Mannitol Medium) (0.5 g/L KH2PO4, 0.2 g/L MgSO4 7.H2O, 0.1g/L NaCl, 10 g/L mannitol, 0.5 g/L yeast extract, 9g/L agar, pH 6.8) and then in YM liquid medium for 48 hours at 28°C and 180 rpm. In addition to the in vitro assays, X.citri::GFP [35], obtained from Dr. Adrián A. Vojnov (Instituto de Ciencia y Tecnología Dr. Cesar Milstein, Fundación Pablo Cassará, Consejo Nacional de Investigaciones Científicas y Técnicas (CONICET), Buenos Aires / Argentina), was used for the in vivo assays.
(§2) Antimicrobial peptide activity was performed in vitro using a microliter plate assay (96 well cell culture cluster—Costar®3599). Fifty microliters of inoculum at 10^4 CFU/mL prepared in PBS buffer (Phosphate buffered saline) was mixed with 50 μL of the peptide diluted in distilled water filter sterilized (dH2O). The final concentration of peptide evaluated ranged from 1–64 μM, and hylin-a1 and PBS were used as positive and negative control for AMP, respectively. […] Three replicates were prepared for each concentration evaluated.
(§3) At the end of the growth incubation, minimum bactericidal concentration (MBC) for each organism was determined by serial dilution using the microdrop technique, as described elsewhere. The Petri dishes were maintained at 28°C for three days to obtain CFU/mL.

[2] = tested on: Sinorhizobium meliloti SEMIA 165; type: cell-based; details: ND = higher than the concentrations evaluated; for MIC S. meliloti: microplate, inoculum 10^4 CFU/mL in PBS, peptide 1–64 μM, 595 nm, three replicates; for MBC S. meliloti: serial dilution, microdrop technique, 28°C three days
From the text: as §1, §2, §3

[3] = tested on: Xanthomonas citri subsp. citri (X.citri, isolate 306); type: cell-based; details: ND = higher than the concentrations evaluated
From the text: as §1, §2, §3

U87 MG cells = experiment: Cytotoxicity in U87 MG cells (alamarBlue); type: cell-based, human; details: concentrations of 1–128 μM, 24 h
Experimental: U87 MG, a human Glioblastoma cell line frequently used as a model for cytotoxicity evaluation was adopted in our study for the peptides citrus–amp1 and citrus–amp2. Cells were plated in 96 wells plate (5x10^4 cells per well), incubated overnight and maintained in a humidified atmosphere at 37°C and 5% CO2. After the incubation period, cells were treated with peptides varying from 1μM to 128 μM and then incubated for 24h. Untreated and cells treated with DMSO (dimethyl sulfoxide) were used as positive and negative control for the viability of U87 MG cells. Six replicates were done by each concentration.
Cytotoxicity was performed using alamarBlue® cell viability reagent, a cell health indicator, through the reduction of […] of living cells. Viable cells convert Resazurin (blue) to resorufin, a compound that emits red fluorescent light. Alamar Blue medium was prepared by mixing medium with alamarBlue solution (Thermo Ficher Scientific) in a ratio of 10:1. After treatment with the peptides for 24 h, the medium was discarded, and Alamar Blue medium (100 μL) was transferred to a 96-well microplate. The microplates were incubated with Alamar Blue at 37°C for 4 h, and absorbance was measured using Epoch2 Microplate Reader (Biotek) in 570 nm. Cell viability was calculated using the ratio of the absorbance between treated and untreated cells and the data were expressed as percentages. […]

tobacco leaves = details: 24 hpi; leaves started to dry out 12 hpi; cited from earlier work
Experimental: The peptide Hylin-1 and PBS buffer were used as positive and negative controls of the phytotoxicity assay, respectively. At seven days post inoculation (7 dpi), visual evaluation was performed in detached leaves. […] Makovitzki et al. assessed the toxicity of peptide C14-KLLK in tobacco leaves.

[4] = 64 µM, Experiment 1, 7 days, n=8–9 larvae
[5] = 64 µM, Experiment 2, 7 days, n=8–9 larvae
[6] = 128 µM, Experiment 1, 7 days, n=8–9 larvae
[7] = 128 µM, Experiment 2, 7 days, n=8–9 larvae
[8] = 10 μL of 64 μM injected, 37°C, 7 days, mean±SD of two experiments, 8–9 larvae
[9] = 10 μL of 128 μM injected, 37°C, 7 days, mean±SD of two experiments, 8–9 larvae
[10] = microplate, inoculum 10^4 CFU/mL in PBS, peptide 1–64 μM, 595 nm, three replicates
[11] = serial dilution, microdrop technique, 28°C three days

GLLDFVTGVGKDIFAQLIKQI-NH(2) [ocellatin 4, cytolytic peptide from skin secretion of the frog Leptodactylus ocellatus]
activity on human erythrocytes at (human erythrocytes): 14.3 mmol/L

IETFLKQLRSAANKIVGL [Citrus-amp1]
% survival [1, 4]: 88.9%
% survival [1, 5]: 88.9%
Median (%survival) ([1]; 64 µM): 88.9%
% survival [1, 6]: 100%
% survival [1, 7]: 88.9%
Median (%survival) ([1]; 128 µM): 94.5%
% survival [1, 8]: 88.89 ± 0%
% survival [1, 9]: 94.50 ± 7.85%
survival percentages of larvae [1]: > 87%

KIFGAIWPLALGALKNLIK [K^0-W^6-Hy-a1]
MIC Met sp. (Methylobacterium sp.; [10]): 4 µM
MBC Met sp. (Methylobacterium sp.; [11]): 8 µM
MIC S. meliloti [2]: 4 µM
MBC S. meliloti [2]: 62 µM
MIC X.ciri [3, 10]: 2 µM
MBC X.ciri [3, 11]: 2 µM

LESLASSAVRTANKARAKL [Citrus-amp2]
MIC S. meliloti [2]: 64 µM
MBC S. meliloti [2]: 64 µM
% survival [1, 4]: 100%
% survival [1, 5]: 75%
Median (%survival) ([1]; 64 µM): 87.5%
% survival [1, 6]: 100%
% survival [1, 7]: 87.5%
Median (%survival) ([1]; 128 µM): 93.8%
% survival [1, 8]: 87.50 ± 17.68%
% survival [1, 9]: 93.75 ± 8.84%
survival percentages of larvae [1]: > 87%
viability percentages of cells (U87 MG cells): > 70%

mellittin
toxicity in tobacco leaves at the inoculation point (tobacco leaves): necrosis
